Measured values taken from PubChem BioAssay AID608 (Sanford-Burnham Center for Chemical Genomics, 2007).
Activity calls are given as the source filed them. How the calls were made is not given here.

Molecular target: Peptidyl-prolyl cis-trans isomerase FKBP1A (Homo sapiens) (UniProt P62942)
Test: FKBP12 binders, biophysical, NMR detection (AID 608)
Settings: NMR binding, purified FKBP12

Peptidyl-prolyl cis-trans isomerase FKBP1A (Homo sapiens), sequence (P62942 whole entry, looked up): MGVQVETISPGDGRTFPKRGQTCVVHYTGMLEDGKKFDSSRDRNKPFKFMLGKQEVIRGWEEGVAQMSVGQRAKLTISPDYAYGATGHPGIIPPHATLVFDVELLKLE

Question: For `CC1(C)C2CC(=O)[C@]3(C)C(CC[C@@]4(C)[C@H](c5ccoc5)OC(=O)C5OC543)[C@@]2(C)[C@@H](O)C[C@H]1O` (stereo partly specified), which Kd is on record?
Answer: > 4 mM (inactive)

Question: For `CC(=O)NC(=S)Nc1cccc(C(=O)O)c1C`, which Kd is on record?
Answer: > 4 mM (inactive)

Question: How did the Kd turn out when `NCc1ccc(-c2ccccn2)s1` was run?
Answer: > 4 mM (inactive)

Question: How did the Kd turn out when `O=C(NCc1ccco1)c1ccc(=O)[nH]c1` was run?
Answer: > 4 mM (inactive)

Question: `CN1CCN(c2ccc(N)cc2)CC1` was tested. Which Kd did it give?
Answer: > 4 mM (inactive)

Question: How did the Kd turn out when `Cc1nnc(NCc2ccc3c(c2)OCO3)[nH]c1=O` was run?
Answer: > 4 mM (inactive)

Question: For `Cc1cc(C)n(CC(=O)O)n1`, which Kd is on record?
Answer: > 4 mM (inactive)

Question: `Cn1c2c(c(=O)n(C)c1=O)CN(Cc1ccco1)CN2` was tested. Which Kd did it give?
Answer: > 4 mM (inactive)

Question: With `Nc1cc(N)nc(SCc2ccccc2)n1` as the molecule, how does the Kd read?
Answer: > 4 mM (inactive)

Question: For `c1ccc(C[N+]23CCN(CC2)c2ccccc23)cc1`, which Kd is on record?
Answer: > 4 mM (inactive)

Question: With `CC(C)(O)CC[C@@H](O)[C@](C)(O)C1CC[C@@]2(O)C3=CC(=O)C4C[C@@H](O)[C@@H](O)C[C@]4(C)C3CC[C@]12C` (stereo partly specified) as the molecule, how does the Kd read?
Answer: > 4 mM (inactive)

Question: `CCOC(=O)CNc1ncnc2c1nnn2CC` was tested. Which Kd did it give?
Answer: > 4 mM (inactive)

Question: Which Kd does the source give for `Cc1cccc(N2CCN(C(=O)c3ccncc3)CC2)c1C` here?
Answer: > 4 mM (inactive)

Question: `CC(C)=CCC1=C(O)c2ccccc2C(=O)C1=O` was tested. Which Kd did it give?
Answer: > 4 mM (inactive)

Question: `CC(=O)Nc1cc(C(N)=O)cc(C(N)=O)c1` was tested. Which Kd did it give?
Answer: > 4 mM (inactive)

Question: For `Cc1ncc(C[n+]2csc3ccccc32)c(N)n1`, which Kd is on record?
Answer: > 4 mM (inactive)

Question: Which Kd does the source give for `O=[n+]1c(CO)c(CO)n([O-])c2ccccc21` here?
Answer: > 4 mM (inactive)

Question: `COc1ccc(NC2=NCC(C)S2)cc1` (stereo unspecified) was tested. Which Kd did it give?
Answer: > 4 mM (inactive)

Question: For `CC(CC(O)C1OC1(C)C)[C@@H]1CCC2(C)C3=CCC4C(C)(C)C(=O)CCC4(C)C3CC[C@@]12C` (stereo partly specified), which Kd is on record?
Answer: > 4 mM (inactive)

Question: With `Cc1ccc(O)c(NC(=O)c2ccco2)c1` as the molecule, how does the Kd read?
Answer: > 4 mM (inactive)

Question: With `CN1CCN(c2ccc(C(=O)O)cc2)CC1` as the molecule, how does the Kd read?
Answer: > 4 mM (inactive)

Question: How did the Kd turn out when `CN(Cc1nc2ccccc2n1C)C(=O)c1cccs1` was run?
Answer: > 4 mM (inactive)

Question: Which Kd does the source give for `Nc1c(N2CCCC2)cnn(-c2ccccc2)c1=O` here?
Answer: > 4 mM (inactive)

Question: `O=C(O)c1cccc2nsnc12` was tested. Which Kd did it give?
Answer: > 4 mM (inactive)

Question: For `CN1CCCC1C(=O)O` (stereo unspecified), which Kd is on record?
Answer: > 4 mM (inactive)

Question: With `CCOC(=O)C1CCC(=O)c2cccn21` (stereo unspecified) as the molecule, how does the Kd read?
Answer: > 4 mM (inactive)

Question: With `COC(=O)C1COCCN1C(=O)CS(=O)(=O)c1ccc(C(C)C)cc1` (stereo unspecified) as the molecule, how does the Kd read?
Answer: inactive

Question: `O=C(O)CC[N+](=O)[O-]` was tested. Which Kd did it give?
Answer: > 4 mM (inactive)

Question: How did the Kd turn out when `NC12CC3CC(C1)CC(O)(C3)C2` was run?
Answer: > 4 mM (inactive)

Question: With `CSc1ccccc1NC(=O)c1cnccn1` as the molecule, how does the Kd read?
Answer: > 4 mM (inactive)

Question: `CC(=O)c1csc(-c2cc(C)on2)n1` was tested. Which Kd did it give?
Answer: > 4 mM (inactive)

Question: For `Cn1c(SCc2ccon2)nc2ccccc2c1=O`, which Kd is on record?
Answer: > 4 mM (inactive)

Question: For `CCOC(=O)c1c(C)nc2ncccn12`, which Kd is on record?
Answer: > 4 mM (inactive)

Question: Which Kd does the source give for `CSc1nc(C)cc(-n2ccc(=O)[nH]c2=O)n1` here?
Answer: > 4 mM (inactive)

Question: How did the Kd turn out when `CCSc1nc2ccccc2[nH]1` was run?
Answer: > 4 mM (inactive)

Question: For `CC1(C)C(=O)CC[C@@]2(C)C1C[C@@H](O)[C@@]1(C)C3=CC(=O)O[C@@H](c4ccoc4)[C@]3(C)CCC21` (stereo partly specified), which Kd is on record?
Answer: > 4 mM (inactive)

Question: Which Kd does the source give for `CC(=O)Nc1cccc(NC(=O)c2ccco2)c1` here?
Answer: > 4 mM (inactive)

Question: With `c1ccc2[nH]c(CCn3cncn3)nc2c1` as the molecule, how does the Kd read?
Answer: > 4 mM (inactive)

Question: How did the Kd turn out when `O=[N+]([O-])c1ccc(/C=N/c2ncn[nH]2)cc1` was run?
Answer: > 4 mM (inactive)

Question: How did the Kd turn out when `Cn1c(NCC(=O)O)nc2c1c(=O)[nH]c(=O)n2C` was run?
Answer: > 4 mM (inactive)

Question: `Clc1cccc(Cl)c1Cn1c(-c2cscn2)nc2ccccc21` was tested. Which Kd did it give?
Answer: inactive

Question: How did the Kd turn out when `CCOC(=O)CNC(=O)CSc1nnc(C)c(=O)[nH]1` was run?
Answer: > 4 mM (inactive)

Question: With `O=C(NC1CCS(=O)(=O)C1)c1ccccc1` (stereo unspecified) as the molecule, how does the Kd read?
Answer: > 4 mM (inactive)

Question: Which Kd does the source give for `O=c1c2ccccc2nc2n1CCCCN2` here?
Answer: > 4 mM (inactive)

Question: For `O=C(CC1SC(=O)NC1=O)Nc1nccs1` (stereo unspecified), which Kd is on record?
Answer: > 4 mM (inactive)

Question: With `CCC(=O)OC1[C@@H]2CC3=C4CC(=O)O[C@@H](c5ccoc5)[C@]4(C)CCC3C(C)(C2=O)[C@@H](CC(=O)OC)C1(C)C` (stereo partly specified) as the molecule, how does the Kd read?
Answer: > 4 mM (inactive)
